Earlier results as cited in patent US20250099590A1, “HIGH DENSITY ULTRASOUND COUPLING GEL AND METHODS OF USE THEREOF” (ZetrOZ Systems LLC, priority 2023, published 2025).

Experiments:
[1] = test system: osteoarthritis-induced pain; conditions: SAM treatment with 1% topical diclofenac, after 7 days
musculoskeletal injuries = conditions: SAM with 2.5% diclofenac, after 4-weeks of daily home-use

O=C(O)Cc1ccccc1Nc1c(Cl)cccc1Cl [diclofenac]
Western Ontario McMaster Outcome (WOMAC) [1]: improved
osteoarthritis-induced pain [1]: significantly alleviated
global health and function (musculoskeletal injuries): global health and functional improvement
pain (musculoskeletal injuries): significant pain reduction
